System: 624824-186-R-J3-PDC multicell spheroids, viability
Assay: Anticancer human tumor 624824-186-R-J3-PDC patient-derived colon adenocarcinoma cell line growth inhibition [PI3K]
Conditions: for viability, T/C: stronger effect = lower value
Method in brief: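 Spheroid viability read-out. Co-cultures contained the tumor line plus HUVEC and human MSCs. Each agent was paired with a PI3K inhibitor (inavolisib, alpelisib, duvelisib, copanlisib) across half-log dilutions starting at clinical Cmax, or at 10 microM when Cmax was unknown.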

[1] = curve of first compound, second compound 0.0316 µM
[2] = curve of first compound, second compound 0.1 µM
[3] = curve of first compound, second compound 0.316 µM
[4] = curve of first compound, second compound 1 µM
[5] = second compound 0.0316 µM, first compound 0.00949 µM
[6] = second compound 0.0316 µM, first compound 0.03 µM
[7] = second compound 0.0316 µM, first compound 0.0949 µM
[8] = second compound 0.0316 µM, first compound 0.3 µM
[9] = second compound 0.0316 µM, first compound 0.949 µM
[10] = second compound 0.0316 µM, first compound 3 µM
[11] = second compound 0.1 µM, first compound 0.00949 µM
[12] = second compound 0.1 µM, first compound 0.03 µM
[13] = second compound 0.1 µM, first compound 0.0949 µM
[14] = second compound 0.1 µM, first compound 0.3 µM
[15] = second compound 0.1 µM, first compound 0.949 µM
[16] = second compound 0.1 µM, first compound 3 µM
[17] = second compound 0.316 µM, first compound 0.00949 µM
[18] = second compound 0.316 µM, first compound 0.03 µM
[19] = second compound 0.316 µM, first compound 0.0949 µM
[20] = second compound 0.316 µM, first compound 0.3 µM
[21] = second compound 0.316 µM, first compound 0.949 µM
[22] = second compound 0.316 µM, first compound 3 µM
[23] = second compound 1 µM, first compound 0.00949 µM
[24] = second compound 1 µM, first compound 0.03 µM
[25] = second compound 1 µM, first compound 0.0949 µM
[26] = second compound 1 µM, first compound 0.3 µM
[27] = second compound 1 µM, first compound 0.949 µM
[28] = second compound 1 µM, first compound 3 µM
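Note: spheroids exposed to agents for seven days before luminescence read.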
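Throughout, for viability, T/C: luminescent signal used as a stand-in for spheroid viability; percent viability relative to DMSO vehicle control wells taken as 100%.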

## Cn1cnc2c(F)c(Nc3ccc(Br)cc3Cl)c(C(=O)NOCCO)cc21 + COc1c(OCCCN2CCOCC2)ccc2c3n(c(=NC(=O)c4cnc(N)nc4)nc12)CCN3
Curve of first compound, second compound 0.00316 µM
  IC50: 854 nM
Curve of first compound, second compound 0.01 µM
  IC50: 582 nM
[1]
  IC50: 189 nM
[2]
  IC50: 47.4 nM
[3]
  IC50: < 9.49 nM
[4]
  IC50: < 9.49 nM
Second compound 0.00316 µM, first compound 0.00949 µM
  viability, T/C: 102%
Second compound 0.00316 µM, first compound 0.03 µM
  viability, T/C: 95.9%
Second compound 0.00316 µM, first compound 0.0949 µM
  viability, T/C: 102%
Second compound 0.00316 µM, first compound 0.3 µM
  viability, T/C: 87.8%
Second compound 0.00316 µM, first compound 0.949 µM
  viability, T/C: 46.3%
Second compound 0.00316 µM, first compound 3 µM
  viability, T/C: 31.4%
Second compound 0.01 µM, first compound 0.00949 µM
  viability, T/C: 108%
Second compound 0.01 µM, first compound 0.03 µM
  viability, T/C: 88.4%
Second compound 0.01 µM, first compound 0.0949 µM
  viability, T/C: 86.4%
Second compound 0.01 µM, first compound 0.3 µM
  viability, T/C: 65.5%
Second compound 0.01 µM, first compound 0.949 µM
  viability, T/C: 37.1%
Second compound 0.01 µM, first compound 3 µM
  viability, T/C: 18.4%
[5]
  viability, T/C: 88.9%
[6]
  viability, T/C: 89.6%
[7]
  viability, T/C: 67.4%
[8]
  viability, T/C: 37.7%
[9]
  viability, T/C: 18.2%
[10]
  viability, T/C: 11.2%
[11]
  viability, T/C: 75.2%
[12]
  viability, T/C: 57.9%
[13]
  viability, T/C: 38.5%
[14]
  viability, T/C: 21%
[15]
  viability, T/C: 13.5%
[16]
  viability, T/C: 5.3%
[17]
  viability, T/C: 43.3%
[18]
  viability, T/C: 28.9%
[19]
  viability, T/C: 17.9%
[20]
  viability, T/C: 9.77%
[21]
  viability, T/C: 4.7%
[22]
  viability, T/C: 1.14%
[23]
  viability, T/C: 22.7%
[24]
  viability, T/C: 16%
[25]
  viability, T/C: 10.1%
[26]
  viability, T/C: 8.08%
[27]
  viability, T/C: 3.21%
[28]
  viability, T/C: 1.3%

## Cn1cnc2c(F)c(Nc3ccc(Br)cc3Cl)c(C(=O)NOCCO)cc21 + CC(Nc1ncnc2nc[nH]c12)c1cc2cccc(Cl)c2c(=O)n1-c1ccccc1
[1]
  IC50: 2020 nM
[2]
  IC50: 1540 nM
[3]
  IC50: 1680 nM
[4]
  IC50: 1280 nM
Curve of first compound, second compound 3.16 µM
  IC50: 688 nM
Curve of first compound, second compound 10 µM
  IC50: 297 nM
[5]
  viability, T/C: 102%
[6]
  viability, T/C: 87.3%
[7]
  viability, T/C: 103%
[8]
  viability, T/C: 74.2%
[9]
  viability, T/C: 66.8%
[10]
  viability, T/C: 42.2%
[11]
  viability, T/C: 96.5%
[12]
  viability, T/C: 84.3%
[13]
  viability, T/C: 101%
[14]
  viability, T/C: 80.8%
[15]
  viability, T/C: 59.8%
[16]
  viability, T/C: 37.6%
[17]
  viability, T/C: 95.8%
[18]
  viability, T/C: 98.6%
[19]
  viability, T/C: 81.3%
[20]
  viability, T/C: 86.1%
[21]
  viability, T/C: 59.2%
[22]
  viability, T/C: 38.6%
[23]
  viability, T/C: 97.4%
[24]
  viability, T/C: 106%
[25]
  viability, T/C: 87.7%
[26]
  viability, T/C: 80.3%
[27]
  viability, T/C: 56.4%
[28]
  viability, T/C: 31.5%
Second compound 3.16 µM, first compound 0.00949 µM
  viability, T/C: 91%
Second compound 3.16 µM, first compound 0.03 µM
  viability, T/C: 91.3%
Second compound 3.16 µM, first compound 0.0949 µM
  viability, T/C: 80.7%
Second compound 3.16 µM, first compound 0.3 µM
  viability, T/C: 67.2%
Second compound 3.16 µM, first compound 0.949 µM
  viability, T/C: 43.2%
Second compound 3.16 µM, first compound 3 µM
  viability, T/C: 27.4%
Second compound 10 µM, first compound 0.00949 µM
  viability, T/C: 101%
Second compound 10 µM, first compound 0.03 µM
  viability, T/C: 80.6%
Second compound 10 µM, first compound 0.0949 µM
  viability, T/C: 74.3%
Second compound 10 µM, first compound 0.3 µM
  viability, T/C: 47.4%
Second compound 10 µM, first compound 0.949 µM
  viability, T/C: 31.7%
Second compound 10 µM, first compound 3 µM
  viability, T/C: 18.1%

## CC(=O)c1c(C)c2cnc(Nc3ccc(N4CCNCC4)cn3)nc2n(C2CCCC2)c1=O
Compound 0.000316 µM
  viability, T/C: 101% [middle of 4 runs]
Compound 0.001 µM
  viability, T/C: 103% [middle of 4 runs]
Compound 0.00316 µM
  viability, T/C: 104% [middle of 4 runs]
Compound 0.01 µM
  viability, T/C: 98.7% [middle of 4 runs]
Compound 0.0316 µM
  viability, T/C: 108% [middle of 4 runs]
Compound 0.1 µM
  viability, T/C: 105% [middle of 4 runs]
Curve of compound
  IC50: > 100 nM
